Test results as given in PubChem BioAssay (NCI).
Several values for one entry are separate records, joined by “and”; a condition that tells them apart may be missing. Equal values may be shown once.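 Protocol summary: plate cells (96-well), add compound at 5 concentrations, incubate 48 h, interpolate endpoints linearly. Here, GI50 denotes the concentration required for 50% inhibition of growth. TGI marks complete inhibition of growth.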

Legend:
Assay in all cases: NCI anticancer screen, dose series, 48 h
NCI-H460 lung = system: NCI-H460 lung
OVCAR-5 ovarian = system: OVCAR-5 ovarian
MOLT-4 leukemia = system: MOLT-4 leukemia
CAKI-1 renal = system: CAKI-1 renal
PC-3 prostate = system: PC-3 prostate
SK-MEL-5 melanoma = system: SK-MEL-5 melanoma
HOP-92 NSCLC = system: HOP-92 NSCLC
A498 renal = system: A498 renal
NCI-H23 lung = system: NCI-H23 lung
KM20L2 colon = system: KM20L2 colon

SMILES	TGI (NCI-H460 lung)	TGI (OVCAR-5 ovarian) [µM]	TGI (MOLT-4 leukemia)	TGI (CAKI-1 renal)	TGI (PC-3 prostate) [µM]	TGI (SK-MEL-5 melanoma)	TGI (HOP-92 NSCLC)	TGI (A498 renal)	TGI (NCI-H23 lung) [µM]	TGI (KM20L2 colon) [µM]	GI50 (NCI-H460 lung)	GI50 (MOLT-4 leukemia)	GI50 (SK-MEL-5 melanoma)	GI50 (HOP-92 NSCLC)	GI50 (KM20L2 colon) [µM]	GI50 (OVCAR-5 ovarian) [µM]	GI50 (CAKI-1 renal) [µM]	GI50 (PC-3 prostate) [µM]	GI50 (A498 renal) [µM]	GI50 (NCI-H23 lung) [µM]
C/C(=N/NC(=S)Nc1ccc(C)cc1)c1ccccn1	7.95 µM	9.55	2.53 µM	13.9 µM	13.7	2.29 µM	12.5 µM	15.9 µM	16.1											
O=c1[nH]c2c(Nc3c4ccccc4nc4ccccc34)c([N+](=O)[O-])c(Nc3c4ccccc4nc4ccccc34)c([N+](=O)[O-])c2[nH]1	> 22.5 µM	5.02	2.39 µM	6.69 µM	5.97	4 µM	4.74 µM	3.35 µM	2.74											
O=C(N/N=C/c1ccccc1)c1c(F)c(F)c(F)c(F)c1F	> 100 µM	> 100	> 100 µM	> 100 µM	> 100	> 100 µM	> 100 µM	> 100 µM	> 100											
O=C1Nc2noc(=O)nc2NO1	> 200 µM	> 200	> 200 µM	> 200 µM	> 200	> 200 µM	> 200 µM	> 200 µM	> 200											
COc1c(OC2OC(CO)C(O)C(O)C2O)cc2c(c1OC)-c1ccc(OC)c(=O)cc1C(NC(C)=O)CC2 (configuration not stated)	> 100 µM	> 100	> 100 µM	> 100 µM		> 100 µM	> 100 µM	> 100 µM	> 100	> 100										
Cc1nnc(SCc2nc(C#N)c(C#N)nc2CSc2nnc(C)s2)s1	> 59.2 µM	34.5	12.9 µM	11.6 µM	41.1	29.2 µM	26.8 µM	> 66.5 µM	45											
O=C(O)C1CCC(=O)N1C(=O)COc1cc(Cl)c(Cl)cc1Cl (configuration not stated)	> 100 µM	> 100		> 100 µM		> 100 µM	> 100 µM	> 100 µM	> 100	> 100										
COC(=O)C(Cc1ccccc1)NC(=O)C(CNC(=O)OCc1ccccc1)C(=O)OCc1ccccc1 (configuration not stated)	> 100 µM and 36.5 µM	> 100	> 100 µM and 30.3 µM	> 100 µM	> 100	> 100 µM and 31.4 µM	> 100 µM	> 100 µM	> 100		94.1 µM and 13.5 µM	> 100 µM and 10.4 µM	> 100 µM and 14.5 µM	> 100 µM and 31.9 µM						
CCCCCCCCCCCCOCC(COP(=O)(O)OCCN=[N+]=[N-])OC(=O)CCCCCCCCCCC (configuration not stated)	> 100 µM	> 100	> 100 µM	> 100 µM	> 100	> 100 µM	> 100 µM	> 100 µM	> 100											
[C-]#[O+].[Cl][Sn]([Cl])[Cl].[Cl][Sn]([Cl])[Cl].[Pt].c1cnc2c(c1)ccc1cccnc12	23.5 µM	> 59.5	> 30.9 µM	> 100 µM		13.4 µM	51.5 µM	13.3 µM	> 100	4.54					1.97					
O=C(Nc1ccc(-n2cc(-c3ccncc3)c(-c3ccc(O)c(Cl)c3)n2)cc1)Nc1cc(C(F)(F)F)cc(C(F)(F)F)c1	14.6 µM	12.7	18.3 µM	12.8 µM	11.5	15.5 µM	5.74 µM	16.3 µM	18.4		3.69 µM	4.29 µM	4.08 µM	1.64 µM		3.17	3.34	2.92	3.68	3.63
BrC1(c2ccccc2)C[n+]2c(-c3ccccc3)cc(-c3ccccc3)cc2-c2ccccc21 (configuration not stated)	6.99 µM	4.1	6.38 µM	9.66 µM	3.45	0.366 µM	3.7 µM	9.32 µM	34.5											
OCCN1CCN(c2nc(N3CCCC3)c3nc(Cl)c(NCc4ccccc4)nc3n2)CC1	18.1 µM	26.6	15.3 µM	23.7 µM	22.8	7.82 µM	16.8 µM	25 µM	29.4											
COc1cc2c(cc1O)NC(=O)[C@@H]1C[C@@H](O)CN1C2=O	> 100 µM	> 100	> 100 µM	> 100 µM	> 100	> 100 µM	> 100 µM	> 100 µM	> 100											
CC(C)Oc1cccc(N2C(CCc3c[nH]c4ccc(Br)cc34)=NS(=O)(=O)c3cnccc32)c1	> 100 µM	> 100	92 µM	> 100 µM	> 100	> 100 µM	> 100 µM	> 100 µM	> 100											
CC(C)(C)C(=O)c1c(O)c2ccccc2c2ccccc2c1=O	> 100 µM	> 100	> 100 µM	> 100 µM	> 100	> 100 µM	> 100 µM	> 100 µM	> 100											
CC1CC(c2ccccc2)=Nc2ccccc2S1 (configuration not stated)	> 100 µM	> 100	> 100 µM	> 100 µM		> 100 µM	> 100 µM	> 100 µM	> 100	> 100										
O=C1/C(=C\c2cccc(Oc3ccccc3)c2)SC(c2ccccc2)N1c1cc(Cl)ccc1Cl (configuration not stated)	> 100 µM	> 100	> 100 µM	> 100 µM	> 100	> 100 µM	74.4 µM	> 100 µM	> 100											
COc1ccccc1N=Nc1c(O)ccc2ccccc12	38.1 µM	> 100	> 100 µM	38.8 µM and 48.6 µM	> 100	> 89.9 µM and 59.2 µM	56.3 µM and 42.5 µM	62.3 µM and 89.2 µM	> 100											
CCCCCCCCCCCC1=C(O)C(=O)C(CC2=C(O)C(=O)C(CCCCCCCCCCC)=C(O)C2=O)=C(O)C1=O	> 100 µM	> 100	> 100 µM	> 100 µM	> 100	> 100 µM	55.2 µM	98.2 µM	> 100											
Cc1ccc(S(=O)(=O)N/N=c2/sc3ccccc3n2C)cc1	> 100 µM	> 100	> 100 µM	> 100 µM	> 100	> 100 µM	> 100 µM	> 100 µM	> 100											
